# Several values for one entry are separate records, joined by “and”; a condition that tells them apart may be missing. Equal entries are not always repeated.
# Columns and labels:
# [1] = tested on: B16 melanoma; assay: allogeneic murine B16 melanoma protection model; assay type: in vivo, mice; conditions: in combination with allogeneic K1735 cells; B16 challenge; two experiments
# Protocol: In particular, C57/b16 (H2^b) mice are vaccinated with the allogeneic melanoma K1735 (H2^k) at least twice on weekly intervals and then challenged with syngeneic B16 (H2^b) tumors. […] This is clear evidence of cross-priming and the existence of shared antigens.
# Peptide constructs were prepared using as T cell binding ligand, either derG (SEQ ID NO. 7), Peptide G (SEQ ID NO. 5). The peptides are synthesized using the FMOC procedure and a double coupling protocol for the first 8 residues. Usually the peptide is prepared with the carboxyl terminus as an amide form. All of the peptides are purified using preparative HPLC, and analyzed by an analytical HPLC, amino acid analysis and mass spectrophotometer. The peptides are greater than 95%, usually greater than 98%, pure by HPLC criteria. The dry peptides are stored in vials with desiccant at −8° C. • 1) Eight groups of seven mice were injected with 200 μl of the vaccine as shown in FIG. 1. • 2) This was repeated after 7 days. • 3) A further 7 days later, mice were challenged with 200 μl saline containing 5×10^4 live B16 on the contralateral side to vaccination. • 4) Mice were sacrificed when tumor size exceeded 15 mm in either axis.
# In order more precisely model the use of clinical allogeneic vaccines, a frozen vaccine was used in the mouse model wherein K-1735 cells were thawed just prior to use. […]
# [2] = tested on: Plasmodium yoelii sporozoites; assay: malaria protection assay, sporozoite challenge of immunized mice; assay type: in vivo; conditions: for Protection: 25 μg 2 times at 3 week intervals in TiterMax, 100 sporozoites
# Protocol: In particular, mice were immunized twice at three week intervals with 25 μg of the subunits (W or G) used to make the L.E.A.P.S.™ construct (GW), and were challenged with 200 plasmodium yoelii sporozoites 2 weeks after the second immunization. Protective efficacy was evaluated by thin blood smears every other day starting 4 days after the challenge. Mice were considered protected if no blood stage parasites were detectable by 14 days after challenge.
# (§1) Next using another antigen with B and T cell activity two inbred strains of mice, (A/J and Balb/c) were immunized twice at three week intervals with the L.E.A.P.S.™ constructs (J-GF/SF or der-SF/GF) or with the subunits (SF/GF, J and derG) used to make heteroconjugated peptides, and were challenged with 100 Plasmodium yoelii sporozoites 2 weeks after the second immunization and protection efficacy evaluated as before. Four days before challenge, serum was collected from individual animals, pooled and analyzed immediately for antibody to SF/GF peptide sera collected from immunized and protected mice 15 days post challenge were pooled and used for IFN-γ determination by ELISA procedures.
# Groups of 10 mice were pre-treated 2 times at 3 week intervals with 25 μg of derG in TiterMax™ adjuvant and challenged with 100 Plasmodium yoelii sporozoites. Protective efficacy was evaluated as described above.
# [3] = tested on: SF/GF peptide; assay: serum antibody ELISA to SF/GF peptide; assay type: in vivo, mice; set-up: scale not given here; conditions: serum pool four days before challenge
# From the text: as §1
# [4] = tested on: IFN-γ; assay: serum IFN-γ determination by ELISA; assay type: in vivo; conditions: A/J mice, serum pool 15 days post challenge
# From the text: as §1
# [5] = tested on: HSV-1; assay: scarification zosteriform spread model of HSV infection; assay type: in vivo; conditions: A/J mice
# Protocol: Groups of 4- to 6-wk old female A/J mice were subcutaneously inoculated once with 25 μg of the derG peptide emulsified in ISA51 adjuvant at a 1:1 ratio before challenge unless otherwise specified. Untreated mice and mice treated with adjuvant served as additional controls. The mice were challenged as specified in methods well known to those of ordinary skill in the art and as exemplified by Goel et al. (“The Ability of an HSV Strain to Initiate Zosteriform Spread Correlates with its Neuroinvasive Disease Potential”, Arch Virol 147:763-773 (2002)) and Goel et al., (“A Modification Of The Epidermal Scarification Model Of Herpes Simplex Virus Infection To Achieve A Reproducible And Uniform Progression Of Disease”, J Virol Meth 106; 153-8 (2002)).
# In particular, hair is removed by shaving and then Nair® is applied. Twenty-fours later the depilated back of a mouse is scratched or abraded to expose the susceptible epidermal layer and virus rubbed in. To provide more detail, 10 μl of a virus suspension containing 6×10^4 plaque forming units was pipetted onto a 0.5 cm square of skin on mouse dorsal surface, which was previously abraded using sand paper glued on a pencil eraser. In untreated animals, the primary lesion developed at the inoculation site within 3 days and spread to the associated root, followed by anterograde transport and formation of secondary lesions at sites along the dermatome of the nerves within 5 days. In severe cases, animals died within 8 days post viral challenge. Disease progression and survival were monitored for at least 10 days. […] The progression and the severity of the lesions was scored from 0 to 7 (death). This model allows for discrimination of the disease progression (local site, neuronal spread, extent of lesion at the dermatome, death) at which the immune system blocks viral progression. In some experiments modifications in the timing, route of administration and mouse strain were evaluated for efficacy of CEL-1000.
# [6] = A/J mice, dose 1.25 μg (Table 6)
# [7] = A/J mice, dose 2.5 μg (Table 6)
# [8] = A/J mice, dose 5 μg, 100 sporozoites (Table 5)
# [9] = A/J mice, dose 25 μg, 100 sporozoites (Table 5)
# [10] = Balb/c mice, dose 25 μg, 100 sporozoites (Table 5)
Sequence,"Protection (%) ([2]; A/J mice, dose 5 μg (Table 6))","Protection (%) [2, 8] [%]","Protection (%) [2, 9] [%]","Protection (%) [2, 10] [%]","Antibody EL1SA A490* ([3]; A/J mice, dose 5 μg)","Antibody EL1SA A490* ([3]; A/J mice, dose 25 μg)","Antibody EL1SA A490* ([3]; Balb/c mice, dose 25 μg)","Protection (%) ([2]; A/J mice, dose 10 μg (Table 6))",other results
"DGQEEKAGVVSTGLIGGG [derG, modified fragment from MHC II β-chain (a.a. 135-149)]",100,100,100,0,2,2,4,–,"Protection [1]: 30% and 40%; Protection ([2]; A/J mice): 80; Protection (%) [2, 6]: 60%; Protection Protected/Tested [2, 6]: 6/10; Protection (%) [2, 7]: 80%; Protection Protected/Tested [2, 7]: 9/10; Protection Protected/Tested ([2]; A/J mice, dose 5 μg (Table 6)): 10/10; Protection Protected/Tested [2, 8]: 10/10; Protection Protected/Tested [2, 9]: 10/10; Protection ([2]; BALB/c mice): 0; Protection Protected/Tested [2, 10]: 0/10; Protection ([2]; C3H mice): 40; Protection ([2]; CAF1 hybrid mice): 40; IFN-γ serum ([4]; dose 5 μg): 40,000 pg/mL; IFN-γ serum ([4]; dose 25 μg): 18,000 pg/mL; protection from lethal HSV-1 challenge [5]: protects A/J mice from lethal HSV-1 challenge; Protection ([5]; intramuscularly 2 weeks prior to challenge, without adjuvant, in aqueous solution): 100%; onset of symptoms, morbidity and mortality, zosteriform spread ([5]; single dose of 25 μg, timing of administration (FIG. 3)): delay in onset of symptoms"
DGQEEKAGVVSTGLIGGGSFPMNEESPLGFSPEEMEAVASKFR [derG-GF/SF],10,80,100,0,"1,933","10,694","17,019",–,–
DLLKNGERIEKVEGGG SFPMNEESPLGFSPEEMEAVASKFR [J-GF/SF],–,10,100,0,"1,103","6,121","11,454",56,–
"DLLKNGERIEKVEGGG [J, short fragment from β2-microglobulin (a.a. 38-50)]",–,10,10,0,1,2,2,10,–
SFPMNEESPLGFSPEEMEAVASKFR [GF/SF],10,30,100,–,"8,443","19,970",–,50,–

# From patent US20070003542A1, “Methods for treating diseases or conditions with peptide constructs” (priority 2002, published 2007)
